In US12622910B2, “Inhibitors of Bruton's tyrosine kinase and methods of their use” (Janssen Pharmaceutica NV, priority 2021, dated 2026):

Assays:
[1] = Population PK model and simulations; design: species or system human
From the text: PK/PD modeling and simulation—In the PK/PD model, a two-compartment population PK (popPK) model with a first-order absorption and elimination was used to fit the PK data. The model was parameterized in terms of apparent clearance (CL/F), apparent volume of distribution of the central compartment (V2/F), apparent inter-compartmental clearance (Q/F), apparent volume of distribution of the peripheral compartment (V3/F), and first-order absorption rate constant (Ka). Inter-individual variability was included on CL/F, V2/F, Q/F, and Ka. Following the development of the popPK model, the PK/PD model was subsequently developed based on individual estimates from the popPK model.
Once MAD data were available, the semi-mechanistic PK/PD model was updated with the acquired data from SAD and MAD cohorts. All covariate effects in the popPK analysis were evaluated on clearance from the central compartment (CL/F) only, except for body weight, food effect, and drug formulation. Body weight was included in the structural model (as a covariate on the CL/F, V2/F, Q/F). […] Food effect and drug formulation were evaluated on Ka. The covariates model selection was conducted using a full-model approach with backward elimination (nominal p<0.001, i.e., a change in the objective function value of 10.83 with 1 degree of freedom). A covariate model was initially developed using all statistically significant covariates of interest, and was then reduced by removing covariates with effect sizes less than 10% of the typical values of the respective PK parameters. This reduced model was regarded as the final mode which was subsequently used for PD model. Model selection was determined by graphical assessment, statistically significant difference in the objective function value between competing models. The performance of the final model was evaluated using a prediction-corrected visual predictive check (pcVPC; n=1000 replicates).
The semi-mechanistic PK/PD model was performed using NONMEM (version 7.3.0, ICON Development Solutions LLC, Ellicott City, MD, United States). The use of NONMEM, including model qualification procedures, were facilitated within the environment of Perl-speaks-NONMEM (version 4.6.0, a compatible front-end program for NONMEM. Data management, exploratory analyses, diagnostic graphics, and post processing of the data and NONMEM outputs were performed using R (version 3.4.1, The R Project for Statistical Computing, statistical software). All analyses were performed in a validated environment, High Performance Pharmacometrics Platform System (Rudraya Sonic version 4 or higher), based on Good Automated Manufacturing Practice and in accordance with 21 CFR Part 11 and Good Clinical Practice regulations.

[2] = Metabolic stability in liver microsomes; format: in vitro ADME, monkey
Experimental: Additional Data on Preclinical PK Profile—Protein binding of the compound of Formula (III) was studied using an equilibrium dialysis method in plasma from human, cynomolgus monkey, beagle dog, Sprague Dawley rat, CD-1 mouse, and guinea pig at 0.25, 2.5, and 25 μM. […] In human and monkey, the plasma protein binding was concentration dependent. […] Free fraction of the compound of Formula (III) in liver microsomes from various species ranged from 75.1% to 87.9% at 0.25 mg/mL and from 58.9% to 86.5% at 1.0 mg/mL (Table 17). […] In hepatocytes, the compound of Formula (III) turnover followed a similar trend, with T1/2 ranging from 75.3 minutes in monkey to 278.1 minutes in human.

CYP3A4 = target: T1, CYP3A4 (Homo sapiens, UniProt P08684); test: Chemical inhibition of turnover in pooled human liver microsomes (ketoconazole); format: in vitro ADME; details: 1 μM, HLM 0.5 mg/mL
T1 construct: with specific CYP probe substrates in human liver microsomes; from tissue; host or cells: human liver microsomes
T1 sequence (P08684 whole entry): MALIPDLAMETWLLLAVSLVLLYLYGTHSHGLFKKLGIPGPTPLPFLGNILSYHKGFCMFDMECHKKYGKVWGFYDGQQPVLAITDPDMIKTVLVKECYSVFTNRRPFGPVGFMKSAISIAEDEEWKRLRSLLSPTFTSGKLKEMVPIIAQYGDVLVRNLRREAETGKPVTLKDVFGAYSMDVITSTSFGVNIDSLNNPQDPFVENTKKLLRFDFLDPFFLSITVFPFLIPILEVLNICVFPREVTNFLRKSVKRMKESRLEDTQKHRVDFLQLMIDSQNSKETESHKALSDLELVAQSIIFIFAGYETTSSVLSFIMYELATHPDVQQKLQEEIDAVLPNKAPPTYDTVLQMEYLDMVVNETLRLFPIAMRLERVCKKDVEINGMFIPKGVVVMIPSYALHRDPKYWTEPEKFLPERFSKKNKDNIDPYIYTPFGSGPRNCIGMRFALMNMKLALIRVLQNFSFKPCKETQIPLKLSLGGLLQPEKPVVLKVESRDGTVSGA

B-cell activation = test: Rat whole blood assay, anti-IgD-induced B-cell activation (CD86); format: cell-based, Wistar rat; details: anti-IgD stimulation, n=2, read-out: IC50, inhibition of B-cell activation in rat whole blood
From the text: The compound of Formula (III) Inhibits B-cell receptor activation—Rat whole blood assays were used to assess the ability of the compound of Formula (III) to inhibit activation of primary B cells in whole blood. The assay used anti-IgD stimulation to trigger B-cell activation. Cell activation in freshly isolated blood was quantified by staining for cell surface expression of B220 to identify B cells and a cell activation marker CD86.
Rat Whole Blood Assay-Anti-rat IgD was purchased from Bio-Rad AbD Serotec, Ltd. (Oxford, United Kingdom). Rat B220-PE and rat CD86-FITC were purchased from eBioscience (San Diego, CA). Lysing buffer was purchased from BD Biosciences (San Diego, CA). To determine the potency of each compound, inhibition of anti-IgD-induced activation of B cells in rat whole blood was assessed by flow cytometry. […]
Inhibition percentage was determined by the following equation: Inhibition %=(ActBstim−ActBcompound)×100/(ActBstim−ActBunstim), where […], ActBunstim, and ActBcompound refer to the percentage of activated B cells of the stimulated (no compound), unstimulated (no antibody), and compound treated wells, respectively. The IC50 for each compound was then calculated from the inhibition % of the titrations using a 4-PL fit. […]

[3] = Population PK model and simulations; design: species or system human; remark: listed apart in the source
[4] = model (B), all SAD and MAD data

C=CC(=O)N[C@H]1CCC[C@H]1NC(=O)c1sc2nccc3c2c1NC(=O)N3c1cnc(CC(C)C)cc1C (atropisomer, axis not shown) [compound of Formula (III), N-((1R,2S)-2-Acrylamidocyclopentyl)-5-(S)-(6-isobutyl-4-methylpyridin-3-yl)-4-oxo-4,5-dihydro-3H-1-thia-3,5,8-triazaacenaphthylene-2-carboxamide]
CL/F, popPK estimate ([1]; model (A), first 5 SAD cohorts): 49.4 L/h
Ka, popPK estimate ([1]; model (A), first 5 SAD cohorts): 1.94 h⁻¹
Q/F, popPK estimate ([1]; model (A), first 5 SAD cohorts): 1.57 L/h
V1/F, popPK estimate ([1]; model (A), first 5 SAD cohorts): 108.9 L
CL/F, popPK estimate [1, 4]: 62.4 L/h
FORM = Oral Capsule on Ka (covariate effect) [1, 4]: 0.325
Ka, popPK estimate [1, 4]: 1.97 h⁻¹
NURT = Fed, standard meal on Ka (covariate effect) [1, 4]: 0.339
Q/F, popPK estimate [1, 4]: 2.85 L/h
V1/F, popPK estimate [1, 4]: 129.6 L
Extraction Ratio, liver microsomes ([2]; Monkey): 0.65
microsomal CLint ([2]; monkey, liver microsomes): 61 µL/min/mg
half-life ([2]; monkey, liver microsomes, read-out: T1/2, liver microsomes): 11.4 min
inhibition of turnover by ketoconazole (CYP3A4): > 97%
IC50 (B-cell activation): 41 ± 11.7 nM
V2/F, popPK estimate ([3]; model (A), first 5 SAD cohorts): 43.0 L
V2/F, popPK estimate [3, 4]: 49.5 L
